IC50, inhibition and Activity data for 29 compounds are collected here from ChEMBL document CHEMBL1800071, “Switching reversibility to irreversibility in glycogen synthase kinase 3 inhibitors: clues for specific design of new compounds” (J Med Chem, 2011).

The source made the active and inactive calls. The calls are words filed in the database; no cut-off is given here. Some results are limits rather than exact numbers.

The target of experiment [1] is T1, Glycogen synthase kinase-3 beta (Homo sapiens, UniProt P49841). Nature of the experiment: Inhibition of GSK3-beta using GS1 as substrate and [gamma-32P]ATP after 20 mins by radiometric assay.
Target sequence in this assay (P49841 whole entry): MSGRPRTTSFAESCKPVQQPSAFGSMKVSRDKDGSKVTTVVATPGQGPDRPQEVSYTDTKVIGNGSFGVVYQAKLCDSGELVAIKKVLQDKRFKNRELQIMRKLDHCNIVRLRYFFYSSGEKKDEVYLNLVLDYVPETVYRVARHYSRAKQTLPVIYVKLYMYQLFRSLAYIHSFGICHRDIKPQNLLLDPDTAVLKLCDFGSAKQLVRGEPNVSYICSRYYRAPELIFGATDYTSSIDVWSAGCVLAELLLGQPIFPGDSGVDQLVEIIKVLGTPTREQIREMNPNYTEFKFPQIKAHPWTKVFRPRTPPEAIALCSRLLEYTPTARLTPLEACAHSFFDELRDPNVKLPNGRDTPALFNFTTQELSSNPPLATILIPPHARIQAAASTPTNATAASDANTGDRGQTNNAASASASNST
Experiment [2] addresses T1, Glycogen synthase kinase-3 beta. Nature of the experiment: Inhibition of human recombinant GSK3-beta using prephosphorylated polypeptide substrate after 30 mins by Glow-type luminescence assay in presence of 1 uM ATP.
Target sequence in this assay (P49841 whole entry): as above
Experiment [3] has the same target. Nature of the experiment: Irreversible inhibition of human recombinant GSK3-beta using prephosphorylated polypeptide substrate preincubated with enzyme for 5 to 10 mins measured after 30 mins by Glow-type luminescence assay in presence of 1 uM ATP.
Target sequence in this assay (P49841 whole entry, looked up): as the sequence (P49841 whole entry) above
Experiment [4] has the same target. In words: Reversible inhibition of human recombinant GSK3-beta using prephosphorylated polypeptide substrate preincubated with enzyme for 5 to 10 mins measured after 30 mins by Glow-type luminescence assay in presence of 1 uM ATP.
Target sequence in this assay (P49841 whole entry, looked up): as the sequence (P49841 whole entry) above
The target is the same in experiment [5]. Nature of the experiment: Covalent binding affinity to human recombinant GSK3-beta by MALDI-TOF analysis.
Target sequence in this assay (P49841 whole entry, looked up): as the sequence (P49841 whole entry) above
The species entered for experiment [6] is Rattus norvegicus. Nature of the experiment: Displacement of [3H]-CGP39653 from NMDA glutaminergic receptor in rat cerebral cortex at 10 uM. It counts as tissue-based. A general note: In a radioligand displacement assay an active substance lowers the binding of a labelled ligand.
For experiment [7], the target named is Adrenergic receptor alpha-2 (Rattus norvegicus) (UniProt P22086+P19328+P22909). Nature of the experiment: Displacement of [3H]-RX821002 from adrenergic A2 receptor in rat cerebral cortex at 10 uM. The experiment is classed as tissue-based.
The species named for experiment [8] is Rattus norvegicus. In words: Displacement of [125I]-alpha-bungarotoxin from alpha-BGTX-sensitive neuronal nicotinic receptor in rat cerebral cortex at 10 uM. The experiment is classed as tissue-based.
In experiment [9] the target is Muscarinic acetylcholine receptor (Rattus norvegicus) (UniProt P08482+P08483+P08485+P08911+P10980). Nature of the experiment: Displacement of [3H]-QNB from muscarinic receptor in rat cerebral cortex at 10 uM. The experiment is classed as tissue-based.
Experiment [10] deals with D(2) dopamine receptor (Homo sapiens) (UniProt P14416). In words: Displacement of [3H]spiperone form human recombinant D2 receptor expressed in CHO cells at 10 uM. The experiment is classed as cell-based.
In experiment [11] the target is Dual specificity mitogen-activated protein kinase kinase 1 (Oryctolagus cuniculus) (UniProt P29678). Nature of the experiment: Inhibition of rabbit recombinant MEK1 expressed in Escherichia coli using inactivated MAP kinase as substrate and [gamma-33P]ATP at 10 uM by scintillation counting.
The species entered for the next experiment is Bos taurus. Nature of the experiment: Inhibition of bovine thymus protein kinase p56 using poly GT as substrate and [gamma-33P]ATP at 10 uM by scintillation counting.
Experiment [12] can be described thus: Inhibition of protein kinase A at 100 uM.
For experiment [13], the species on record is Rattus norvegicus. Nature of the experiment: Displacement of [3H]-AMPA from AMPA glutaminergic receptor in rat cerebral cortex at 10 uM. It counts as tissue-based.
Experiment [14] deals with Proto-oncogene tyrosine-protein kinase Src (Homo sapiens) (UniProt P12931). Nature of the experiment: Inhibition of Src kinase at 10 uM.
For experiment [15], the species on record is Rattus norvegicus. Nature of the experiment: Displacement of [3H]cytisine from alpha-BGTX-insensitive neuronal nicotinic receptor in rat cerebral cortex at 10 uM. It counts as tissue-based.
The target of experiment [16] is Tyrosine-protein kinase ABL1 (Mus musculus) (UniProt P00520). In words: Inhibition of mouse recombinant Abl expressed in Escherichia coli assessed as phosphopoly Gt formation using poly Gt as substrate at 10 uM by fluorescence polarization method. (In general: In fluorescence polarisation assays a small probe gives low polarisation when free and higher when bound to something large.)

Experiment [17] has as its target Insulin receptor (Homo sapiens) (UniProt P06213). Nature of the experiment: Inhibition of human recombinant IRK using poly GT as substrate and [gamma-33P]ATP at 10 uM by scintillation counting.
For experiment [18], the target named is D(3) dopamine receptor (Homo sapiens) (UniProt P35462). In words: Displacement of [3H]spiperone form human recombinant D3 receptor expressed in CHO cells at 10 uM. The experiment is classed as cell-based.
In experiment [19] the target is Epidermal growth factor receptor (Homo sapiens) (UniProt P00533). Nature of the experiment: Inhibition of EGFR kinase in human A431 cells using poly GAT as substrate and [gamma-33P]ATP at 10 uM by scintillation counting. It counts as cell-based. The conditions noted are these: A-431.
For experiment [20], the species on record is Rattus norvegicus. In words: Displacement of [3H]serotonine from 5-HT receptor in rat cerebral cortex at 10 uM. It counts as tissue-based.
The test system of experiment [21] is Calcium/calmodulin-dependent protein kinase type II (Rattus norvegicus). Nature of the experiment: Inhibition of rat brain CAM kinase 2 using autocamtide as substrate and [gamma-33P] at 10 uM by scintillation counting.
Experiment [22] concerns the target Mitogen-activated protein kinase 1 (Rattus norvegicus) (UniProt P63086). In words: Inhibition of rat recombinant ERK42 expressed in Escherichia coli using MBP as substrate and [gamma-33P]ATP at 10 uM by scintillation counting.
Experiment [23] is described as follows: Inhibition of GSK3 in granule cerebellar neurons assessed as […] of tau phosphorylation at 25 uM after 16 hrs by Western blot analysis.
Experiment [24] is described as follows: Inhibition of GSK3 in granule cerebellar neurons assessed as decrease of tau phosphorylation at Ser396 at 25 uM after 16 hrs by Western blot analysis.

Chain of D(3) dopamine receptor (Homo sapiens) (P35462 whole entry): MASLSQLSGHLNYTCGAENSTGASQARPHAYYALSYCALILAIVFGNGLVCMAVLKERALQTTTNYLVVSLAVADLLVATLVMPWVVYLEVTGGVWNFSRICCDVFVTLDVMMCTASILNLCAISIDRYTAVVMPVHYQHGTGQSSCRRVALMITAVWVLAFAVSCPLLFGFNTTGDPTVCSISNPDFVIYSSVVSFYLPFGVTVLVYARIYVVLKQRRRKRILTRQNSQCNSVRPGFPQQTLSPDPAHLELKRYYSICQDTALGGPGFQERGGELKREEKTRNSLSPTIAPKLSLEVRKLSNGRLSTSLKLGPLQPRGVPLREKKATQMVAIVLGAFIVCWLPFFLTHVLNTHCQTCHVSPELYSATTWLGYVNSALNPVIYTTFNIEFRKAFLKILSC
Chain of Insulin receptor (Homo sapiens) (P06213 28-758 limits assumed): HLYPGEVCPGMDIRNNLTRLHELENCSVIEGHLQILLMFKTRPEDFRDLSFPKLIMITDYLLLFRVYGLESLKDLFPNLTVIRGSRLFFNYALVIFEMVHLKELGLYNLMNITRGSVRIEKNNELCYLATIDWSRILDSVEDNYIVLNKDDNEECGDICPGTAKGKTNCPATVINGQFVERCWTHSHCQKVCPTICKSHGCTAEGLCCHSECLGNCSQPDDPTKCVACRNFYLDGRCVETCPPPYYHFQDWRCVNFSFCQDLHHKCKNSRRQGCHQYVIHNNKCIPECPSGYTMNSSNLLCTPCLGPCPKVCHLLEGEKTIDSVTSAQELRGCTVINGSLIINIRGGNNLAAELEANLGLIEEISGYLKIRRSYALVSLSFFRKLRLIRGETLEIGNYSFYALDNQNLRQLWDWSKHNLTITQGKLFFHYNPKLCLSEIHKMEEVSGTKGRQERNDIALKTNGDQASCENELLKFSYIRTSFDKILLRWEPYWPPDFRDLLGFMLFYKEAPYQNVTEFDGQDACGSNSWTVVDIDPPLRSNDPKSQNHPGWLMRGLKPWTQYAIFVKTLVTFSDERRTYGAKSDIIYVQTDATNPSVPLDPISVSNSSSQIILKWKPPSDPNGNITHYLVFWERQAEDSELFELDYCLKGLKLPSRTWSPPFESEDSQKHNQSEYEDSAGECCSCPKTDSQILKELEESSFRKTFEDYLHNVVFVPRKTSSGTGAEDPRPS
Chain of Insulin receptor (Homo sapiens) (P06213 763-1382 limits assumed): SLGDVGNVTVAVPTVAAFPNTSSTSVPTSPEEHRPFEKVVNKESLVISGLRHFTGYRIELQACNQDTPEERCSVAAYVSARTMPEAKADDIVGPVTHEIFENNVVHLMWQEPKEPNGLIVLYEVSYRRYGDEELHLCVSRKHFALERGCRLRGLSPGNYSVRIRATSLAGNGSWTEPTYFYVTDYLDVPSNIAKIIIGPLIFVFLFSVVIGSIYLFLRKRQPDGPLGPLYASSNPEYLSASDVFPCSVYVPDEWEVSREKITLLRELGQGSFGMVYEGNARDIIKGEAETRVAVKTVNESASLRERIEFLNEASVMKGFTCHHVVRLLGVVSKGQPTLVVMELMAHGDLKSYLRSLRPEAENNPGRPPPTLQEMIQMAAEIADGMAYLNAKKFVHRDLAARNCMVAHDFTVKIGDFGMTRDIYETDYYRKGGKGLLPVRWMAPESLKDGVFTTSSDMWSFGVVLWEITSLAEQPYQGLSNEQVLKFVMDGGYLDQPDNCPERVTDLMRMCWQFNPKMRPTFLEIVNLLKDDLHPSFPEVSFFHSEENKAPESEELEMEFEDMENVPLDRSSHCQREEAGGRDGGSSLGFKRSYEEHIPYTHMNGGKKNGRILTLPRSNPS
Chain of Dual specificity mitogen-activated protein kinase kinase 1 (Oryctolagus cuniculus) (P29678 whole entry): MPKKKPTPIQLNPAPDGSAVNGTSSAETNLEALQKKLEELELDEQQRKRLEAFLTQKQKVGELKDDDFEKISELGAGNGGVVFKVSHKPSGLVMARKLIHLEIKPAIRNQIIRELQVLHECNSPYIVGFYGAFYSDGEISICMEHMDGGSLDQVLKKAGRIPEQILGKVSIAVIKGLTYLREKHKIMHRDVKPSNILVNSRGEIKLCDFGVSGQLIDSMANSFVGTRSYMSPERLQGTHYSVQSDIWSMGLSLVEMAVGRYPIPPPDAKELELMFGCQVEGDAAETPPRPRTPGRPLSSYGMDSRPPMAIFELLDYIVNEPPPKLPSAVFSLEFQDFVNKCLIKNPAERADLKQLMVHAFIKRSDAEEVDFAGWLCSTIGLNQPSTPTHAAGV
Chain of Epidermal growth factor receptor (Homo sapiens) (P00533 whole entry): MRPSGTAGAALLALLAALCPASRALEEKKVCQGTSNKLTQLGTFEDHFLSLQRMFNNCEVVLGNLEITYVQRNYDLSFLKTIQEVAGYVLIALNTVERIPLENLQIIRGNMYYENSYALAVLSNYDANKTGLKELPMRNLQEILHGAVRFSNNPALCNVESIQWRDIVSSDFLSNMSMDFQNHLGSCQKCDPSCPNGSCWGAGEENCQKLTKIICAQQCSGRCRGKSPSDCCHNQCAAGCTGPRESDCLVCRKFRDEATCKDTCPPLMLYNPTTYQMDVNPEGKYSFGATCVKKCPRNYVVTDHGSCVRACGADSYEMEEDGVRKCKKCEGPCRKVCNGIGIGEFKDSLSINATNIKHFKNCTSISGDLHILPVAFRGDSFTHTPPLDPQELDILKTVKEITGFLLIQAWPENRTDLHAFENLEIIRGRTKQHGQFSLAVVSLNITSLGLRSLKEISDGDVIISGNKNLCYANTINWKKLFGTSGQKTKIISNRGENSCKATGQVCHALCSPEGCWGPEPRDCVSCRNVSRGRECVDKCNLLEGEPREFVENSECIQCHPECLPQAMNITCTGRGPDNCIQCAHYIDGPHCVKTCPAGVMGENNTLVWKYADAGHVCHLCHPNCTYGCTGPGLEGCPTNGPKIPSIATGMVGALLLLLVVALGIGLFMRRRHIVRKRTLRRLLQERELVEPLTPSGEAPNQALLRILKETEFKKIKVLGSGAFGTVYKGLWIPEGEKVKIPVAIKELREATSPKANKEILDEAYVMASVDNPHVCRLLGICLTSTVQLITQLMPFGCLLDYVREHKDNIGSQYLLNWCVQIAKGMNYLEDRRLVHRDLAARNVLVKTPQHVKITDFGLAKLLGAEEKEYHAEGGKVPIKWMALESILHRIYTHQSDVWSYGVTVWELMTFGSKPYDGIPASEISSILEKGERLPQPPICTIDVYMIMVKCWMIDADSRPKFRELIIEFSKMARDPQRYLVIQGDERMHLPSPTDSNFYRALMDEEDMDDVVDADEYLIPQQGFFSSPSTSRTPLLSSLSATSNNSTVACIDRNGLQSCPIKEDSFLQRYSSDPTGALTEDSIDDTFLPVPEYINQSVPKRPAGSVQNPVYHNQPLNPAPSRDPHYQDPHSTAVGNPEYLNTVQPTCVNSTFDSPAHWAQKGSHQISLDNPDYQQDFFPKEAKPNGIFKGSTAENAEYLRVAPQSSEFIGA
Chain of Proto-oncogene tyrosine-protein kinase Src (Homo sapiens) (P12931 2-536 limits assumed): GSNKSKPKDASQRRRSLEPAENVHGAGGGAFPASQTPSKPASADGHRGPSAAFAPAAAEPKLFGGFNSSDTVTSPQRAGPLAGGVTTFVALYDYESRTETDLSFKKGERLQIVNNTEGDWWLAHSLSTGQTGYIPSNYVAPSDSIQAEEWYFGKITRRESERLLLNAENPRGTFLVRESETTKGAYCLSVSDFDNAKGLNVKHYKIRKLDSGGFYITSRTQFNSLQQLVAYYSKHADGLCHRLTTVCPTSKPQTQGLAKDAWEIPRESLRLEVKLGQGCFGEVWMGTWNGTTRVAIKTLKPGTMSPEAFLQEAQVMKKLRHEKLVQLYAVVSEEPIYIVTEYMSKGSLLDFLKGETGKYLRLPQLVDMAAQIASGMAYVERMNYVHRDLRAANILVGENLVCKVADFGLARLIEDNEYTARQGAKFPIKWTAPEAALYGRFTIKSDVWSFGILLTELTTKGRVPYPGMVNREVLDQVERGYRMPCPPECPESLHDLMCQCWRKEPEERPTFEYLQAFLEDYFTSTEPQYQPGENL
Chain of D(2) dopamine receptor (Homo sapiens) (P14416 whole entry): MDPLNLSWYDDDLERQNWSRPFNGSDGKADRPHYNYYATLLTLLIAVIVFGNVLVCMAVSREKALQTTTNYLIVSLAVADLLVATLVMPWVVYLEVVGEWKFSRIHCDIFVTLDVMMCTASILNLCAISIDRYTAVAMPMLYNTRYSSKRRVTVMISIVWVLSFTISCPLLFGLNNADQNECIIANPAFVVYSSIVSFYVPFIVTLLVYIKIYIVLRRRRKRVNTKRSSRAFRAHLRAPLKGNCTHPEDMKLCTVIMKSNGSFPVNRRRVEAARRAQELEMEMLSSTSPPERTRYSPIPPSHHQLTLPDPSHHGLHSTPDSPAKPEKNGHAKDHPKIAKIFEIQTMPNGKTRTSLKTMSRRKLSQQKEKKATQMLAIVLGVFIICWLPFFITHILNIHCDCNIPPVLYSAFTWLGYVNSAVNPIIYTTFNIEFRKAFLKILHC

In the case of `[O-][S+](CCl)c1ccc(Br)cc1` (stereo unspecified), the IC50 (as a rule, the midpoint of a concentration-inhibition curve) in [1] was > 100 µM.

Regarding `O=C(CSc1ccccc1)c1ccc(Br)cc1`, in experiment [1], the IC50 is > 100 µM.

`O=C(c1ccc(C(F)(F)F)cc1)C(Br)Br` yielded an IC50 in experiment [1] of 5 µM.

With `CCSCC(=O)c1ccc(Br)cc1`, the half-maximal inhibitory concentration (IC50) in [1] is > 10 µM.

In the case of `O=C(CBr)C1=C(c2c[nH]c3ccccc23)C(=O)NC1=O`, the IC50 in experiment [2] was 0.047 µM. Moreover, the inhibition (in general, how much of the control response was suppressed) in [3] was “Active”.

In the case of `O=C(CO)c1ccc(Br)cc1`, the IC50 in experiment [1] was > 100 µM.

On to `CC(=O)n1cnc2c(N)ncnc21`, for which the IC50 in [2] was > 50 µM.

Turning to `CC(=O)C1=C(c2cn(C)c3ccccc23)C(=O)NC1=O`, in experiment [2], the IC50 is 0.89 µM. In addition, the inhibition entry in experiment [4] was “Active”. Moreover, the outcome in [5] was Active.

For `O=C(CBr)c1ccc(N2CCOCC2)cc1`, in experiment [1], it took 6 µM to reach half-maximal inhibition (IC50).

The compound `NCC(=O)c1ccc(Br)cc1` yielded an IC50 in [1] of 100 µM.

Regarding `COc1ccc(-n2cnc3cc(C(C)=O)ccc32)cc1`, the IC50 in experiment [2] is > 10 µM.

As for `O=C(CSCc1ccccc1)c1ccc(Br)cc1`, in experiment [1], the IC50 was > 10 µM.

In the case of `Cn1cc(C2=C(C(=O)CBr)C(=O)NC2=O)c2ccccc21`, the IC50 in experiment [2] amounted to 0.005 µM. In addition, in experiment [3], the inhibition entry is “Active”. Moreover, in experiment [5], the outcome was Active.

In experiment [1], `Nc1c(Br)cc(C(=O)C(Br)Br)cc1Br` displayed an IC50 of 0.5 µM.

Regarding `N#Cc1ccc(C(=O)C(Br)Br)cc1`, the IC50 in [1] stood at 1.5 µM.

Consider `O=C(CCl)c1ccc(Cl)cc1`, for which the inhibition in the experiment listed under Rattus norvegicus [6] was 15%; in experiment [7] it was < 10%; in the experiment listed under Rattus norvegicus [8], < 10%; in experiment [9] it was < 10%; in experiment [10], < 10%; in experiment [11], < 10%. Also, the inhibition in the experiment listed under Bos taurus was < 10%; in the experiment listed under Rattus norvegicus [13] it was < 10%; in experiment [14], 19%; in the experiment listed under Rattus norvegicus [15], < 10%; in [16], < 10%; in [17], < 10%. The inhibition in experiment [18] was < 10%; in experiment [19], < 10%; in the experiment listed under Rattus norvegicus [20], < 10%; in experiment [21], 16%; in experiment [22], < 10%. The inhibition entry in [12] was “inactive”.

On to `Nc1ncnc2c1ncn2C(=O)CCl`, for which the IC50 in experiment [2] amounted to 13.4 µM.

As for `CC(=O)C1=C(c2c[nH]c3ccccc23)C(=O)NC1=O`, the IC50 in experiment [2] was 4.47 µM. For the same compound, the inhibition entry in [4] was “Active”.

With `O=C(c1ccc(I)cc1)C(Br)Br`, the half-maximal inhibitory concentration (IC50) in experiment [1] was determined as 2 µM.

Turning to `CC(=O)OCC(=O)c1ccc(Br)cc1`, in experiment [1], the IC50 was > 100 µM.

In the case of `COc1ccc(-n2cnc3cc(C(=O)CBr)ccc32)cc1`, in experiment [2], the IC50 is 0.58 µM. The inhibition result in [3] is “Active”.

In experiment [1], `O=C(c1ccccn1)C(Br)Br` gave an IC50 of 2.5 µM.

In the case of `CO/N=C(\CBr)c1ccc(Br)cc1`, the IC50 in experiment [1] was determined as 50 µM.

`O=C(CBr)c1ccc(C(F)(F)F)cc1` returned an IC50 in experiment [1] of 5 µM.

`O=C(CBr)c1ccc(Br)cc1`: the inhibition (in the experiment filed under Rattus norvegicus [6]; in experiment [7]; in the experiment listed under Rattus norvegicus [8]; in experiment [9]; in [10]; in experiment [11]) was < 10% each time. For the same compound, the inhibition in the experiment listed under Bos taurus is 29%; in the experiment filed under Rattus norvegicus [13], < 10%; in [14], 38%; in the experiment filed under Rattus norvegicus [15], 16%; in experiment [16], < 10%; in experiment [17], < 10%. Besides, the inhibition is < 10% in [18]; 18% in experiment [19]; < 10% in the experiment filed under Rattus norvegicus [20]; < 10% in experiment [21]; < 10% in experiment [22]. Further, in experiment [12], the inhibition result is “inactive”.

Take `O=C(CN1C(=O)c2ccccc2C1=O)c1ccc(Br)cc1`: it took 100 µM to reach half-maximal inhibition in [1] (IC50).

With `N#Cc1cccc(C(=O)C(Br)Br)c1`, the IC50 in experiment [1] was 1 µM.

Regarding `O/N=C(\CBr)c1ccc(Br)cc1`, in [1], the IC50 is > 100 µM.

For the compound `[Cl-].[Li+]`, the inhibition result in experiment [23] and in experiment [24] was “Active” each time.
